The values that follow come from US10233202B2, “Tenofovir monobenzyl ester phosphamide prodrug, preparation method and use thereof” (JIANGSU TASLY DIYI PHARMACEUTICAL CO., LTD., priority 2015, dated 2019).

Data set [1] in a line: Cell viability test in MT-4 cells (CellTiter Glo). The settings on record: human. The class given is cell-based. As for the experimental part: 9.3. Treatment of the cells in the cell viability test: parallel tests were carried out using the same method as that in 9.2, except that the 96-well plate containing the compounds of different concentrations were replaced with the blank 96-well plate, and CellTiter Glo was used to determine the cell viability to calculate the CC50 value.
(§1) 9.4. Data analysis and calculation of the inhibition percentage: the activity percentage was calculated using the following formula: Activity (%) =(Raw datacpd−AverageVC)/(AverageCC−AverageVC)*100Cell Viability (%)=Raw datacpd/AverageCC*100
(In general: In ATP-based viability assays light output follows the ATP content of the culture.)

The test system of a further data set is HBV. As to the kind of experiment: Cell based anti-HBV activity test, HBV DNA in HepG2.2.15 cell supernatant by qPCR. The settings on record: Hepatitis B virus. As for the experimental part: (§2) 8.1. Dilution of the compounds: the initial concentration of each compound in the in vitro anti-HBV activity test was 1 μM, with 3-fold serial dilution to 8 concentrations; the initial concentration of each compound in the cytotoxicity test was 100 μM, with 3-fold serial dilution to 8 concentrations; DMSO was used for the dilution of the compound mother liquor. The initial concentrations of the reference compound TDF for the anti-HBV activity test in vitro and the cytotoxicity test were all set at 0.2 μM, with 3-fold serial dilution to 8 concentrations.
8.2. Anti-HBV activity test in vitro: the HepG2.2.15 cells were plated in the 96-well plate (4×10^4 cells/well), and cultured overnight at 37° C. in 5% CO2. On second day, fresh culture solutions containing compounds of different concentrations were added to the culture wells. See Table 2 for the compound distribution. On 5th day, the used culture solutions in the culture wells were sucked and discarded, and fresh culture solutions containing compounds of different concentrations were added. On 8th day, the supernatant in the culture wells was collected for the extraction of HBV DNA in the supernatant. qPCR test was used to detect the concentration of HBV DNA content in the HepG2.2.15 supernatant.
8.4. Data analysis and calculation of the inhibition percentage and relative cell viability: The inhibition percentage was calculated using the following formula: % Inh.=[(HBV quantity of DMSO control−HBV quantity of sample)/HBV quantity of DMSO control]×100%
9.1 Drugs: the dilution method and concentrations of compound 3, the reference compound (CN201380030061.6, and the compound shown in claim 36 (abbreviation: compound 7), and the isomer thereof) were the same as those in example 1.
(§3) 9.2 Test method: the test was carried out according to the procedure in example 1.
For orientation: In qPCR the cycle at which signal appears reflects the starting amount.

The next data set can be described thus: in vitro. It counts as cell-based. The settings on record: human, HepG2.2.15 cells. As for the experimental part:
(§4) The concentration of HBV DNA in the HepG2.2.15 cell supernatant was detected through the real-time fluorescence quantitative PCR (qPCR) method to determine the anti-HBV activity of the compound in the HepG2.2.15 cells, and the effect of the testing compounds to the HepG2.2.15 cell activity was detected through Cell-titer Blue.
as §2
(§5) 8.3. Treatment of the cells in the cell viability test: the HepG2.2.15 cells were plated in the 96-well plate (4×10^4 cells/well), and cultured overnight at 37° C. in 5% CO2. On 2nd day, fresh culture solutions containing compounds of different concentrations were added to the culture wells. See Table 3 for the compound distribution. On 5th day, the used culture solutions in the culture wells were sucked and discarded, and fresh culture solutions containing compounds of different concentrations were added. On 8th day, Cell-titer Blue agent was added to each well, and the microplate reader was used to detect the fluorescence value of each well.
(§6) The cell viability percentage was calculated using the following formula: % cell viability=(fluorescence of sample−fluorescence of medium control)/(fluorescence of DMSO control−fluorescence of medium control)[…] 100%
as §3

The subject of a further data set is HepG2.2.15 cells. The data set can be described thus: in vitro. The class given is cell-based. The settings on record: comparative test, Table 4. As for the experimental part: as §4, §2, §5, §6, §3
A further data set relates to HIV-1 IIIB. The data set can be described thus: In vitro anti-HIV activity test in MT-4 cells infected with HIV-1 IIIB (CellTiter Glo). The class given is cell-based. Here is the method: 9.1. Dilution and concentrations of the compounds and the reference compound (CN01813161GS-7340, TDF) were the same as those in example 1.
9.2. In vitro anti-HIV activity test: after MT-4 cells were infected with 24 TCID50HIV-1 IIIB/1×10^5 cells (2.4 TCID50/well) at 37° C. for 1 hour, they were plated in the 96-well plate containing the compounds of different concentrations ([…]) and cultured at 37° C. in 5% CO2 for 5 days. CellTiter Glo was used to determine the activity to calculate the EC50 value.
as §1

Data set [2] in a line: Stability in the simulated intestinal fluid. It counts as in vitro ADME. The settings on record: 10 μM. As for the experimental part:
(§7) The following stability test were carried out according to the prior art, and the data of the stability test shown in the table were the residue percentages after the test compounds were incubated for different period of time under the test condition.

A further data set has as its target hERG K-channel (Homo sapiens, UniProt Q12809). As to the kind of experiment: hERG manual whole-cell patch clamp in CHO cells (cardiotoxicity study). The settings on record: IC50, hERG current, room temperature. As for the experimental part: The CHO cells obtained from AVivaBiosciences that could stably express the hERG K-channel were used in the test, and the cells were incubated at 37° C. in 5% CO2 and under constant humidity.
The final concentration of DMSO in the extracellular fluid was not higher than 0.30%.
The whole-cell patch clamp technique was used on the Multiclamp patch-clamp amplifier to test the compound at room temperature, the output signal was digitalized using the DIgiDAta 1440 A/D-D/A plate, and the Pclamp10 software was used for the control of the recording. The minimum sealing resistance was set at 500 MOh/ms, and the minimum specific hERG current was set at 0.4 nA for quality control.
Clampfit (V10.2, Molecular Devices), Excel 2003 and GraphPad Prism 5.0 were used for the data analysis. The calculation formula of the current: I/Icontrol=Bottom+(Top−Bottom)/(1+10^((LogIC50−Log C)*Hillslope

Data set [3] is described as follows: Stability in the human liver S9. It counts as in vitro ADME. The settings on record: human liver S9, 1 μM. Here is the method:
as §7

Data set [4] can be described thus: Stability in the human blood. The settings on record: 2 μM. The class given is in vitro ADME. Here is the method: as §7
Data set [5] is described as follows: Stability in the simulated gastric fluid. It counts as in vitro ADME. The settings on record: 10 μM. As for the experimental part: as §7
The conditions of data set [6]: oral, after intestinal absorption; cited from earlier work.
Where [7] appears, read: HepG2.2.15, HepG2.2.15 cells, comparative test, Table 4, read-out: EC50.
[8] abbreviates: Human immunodeficiency virus 1, MT4, 120 h, MT-4 cells infected with HIV-1 IIIB, 5 days, read-out: EC50.

Structures can show the parent of a compound that is named as a salt. Where two headings read alike, the source gives them in different places. A value given as a limit tells only on which side of the number the result lay.

Chain of hERG K-channel (Q12809 whole entry): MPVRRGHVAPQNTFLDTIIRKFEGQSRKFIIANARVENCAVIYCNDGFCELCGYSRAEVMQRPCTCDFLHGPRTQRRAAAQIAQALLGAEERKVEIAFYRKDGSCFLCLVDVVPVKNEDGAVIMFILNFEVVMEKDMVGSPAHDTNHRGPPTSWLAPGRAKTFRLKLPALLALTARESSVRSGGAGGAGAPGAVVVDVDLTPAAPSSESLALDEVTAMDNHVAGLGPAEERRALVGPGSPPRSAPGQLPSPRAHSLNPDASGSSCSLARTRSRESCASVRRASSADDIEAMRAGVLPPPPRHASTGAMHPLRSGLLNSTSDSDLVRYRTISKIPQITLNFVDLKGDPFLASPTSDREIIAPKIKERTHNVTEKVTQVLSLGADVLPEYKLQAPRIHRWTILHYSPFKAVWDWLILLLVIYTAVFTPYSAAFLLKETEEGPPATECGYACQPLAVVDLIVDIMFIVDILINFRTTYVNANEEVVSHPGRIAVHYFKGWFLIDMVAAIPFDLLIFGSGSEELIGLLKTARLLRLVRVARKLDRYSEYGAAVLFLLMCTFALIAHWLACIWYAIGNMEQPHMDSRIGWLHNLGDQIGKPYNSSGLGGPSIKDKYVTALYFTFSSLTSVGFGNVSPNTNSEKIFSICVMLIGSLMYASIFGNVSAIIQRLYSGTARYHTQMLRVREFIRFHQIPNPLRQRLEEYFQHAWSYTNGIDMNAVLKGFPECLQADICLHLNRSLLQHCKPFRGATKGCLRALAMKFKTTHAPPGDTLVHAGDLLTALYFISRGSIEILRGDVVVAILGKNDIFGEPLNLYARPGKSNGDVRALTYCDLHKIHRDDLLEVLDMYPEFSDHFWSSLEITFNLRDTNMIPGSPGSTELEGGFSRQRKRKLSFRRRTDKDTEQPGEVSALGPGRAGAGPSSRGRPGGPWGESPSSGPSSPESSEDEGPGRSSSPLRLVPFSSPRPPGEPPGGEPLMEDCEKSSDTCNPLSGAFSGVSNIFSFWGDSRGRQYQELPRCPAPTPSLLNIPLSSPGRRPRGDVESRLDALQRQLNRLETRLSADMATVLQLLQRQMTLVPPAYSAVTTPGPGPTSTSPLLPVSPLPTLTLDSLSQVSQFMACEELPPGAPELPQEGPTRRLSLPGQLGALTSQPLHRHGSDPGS

In general, CC50 refers to the concentration giving 50% cytotoxicity. A high value points to better tolerance by the cells. What is called EC50 is the concentration at which the effect is half-maximal. One may read the IC50 as the concentration that gives 50% inhibition. Higher therefore signals weaker potency in that assay. For orientation: half-life means the time needed for the level to fall by half in the phase considered. The low end stands for fast loss, the high end for slow loss. As for `CC(C)OC(=O)[C@H](C)N[P@](=O)(CO[C@H](C)Cn1cnc2c(N)ncnc21)OCc1ccccc1` (single isomer, unassigned) [Compound 3b], the CC50 at 5 days in [1] was 16.9 µM. Further, the EC50 with HBV (HepG2.2.15, HepG2.2.15 cells, HBV DNA in supernatant on 8th day, Table 3, read-out: EC50) is less than 0.01 µM. Moreover, the EC50 in the data set on HBV (setting [7]) was found to be 0.006 µM. The CC50 in “in vitro” (Cell-titer Blue on 8th day, Table 3) is more than 100 µM. In the data set on HepG2.2.15 cells, this molecule displayed a CC50 of more than 100 µM. In the data set on HIV-1 IIIB (setting [8]), the EC50 worked out at 0.00986 µM. Moreover, in [2], the “% 0 min (residue percentage)” value is given as 100%, the “% 60 min (residue percentage)” value was 51.07%, the “% 120 min (residue percentage)” value is 20.20% and the “% 360 min (residue percentage)” value is on record as 0.23%. Also, the “% 1440 min (residue percentage)” value in [2] is recorded as 0.00%. This molecule returned an IC50 at hERG K-channel of more than 30 µM. In addition, in data set [3], the “CLlint(s9)” value came out at 68.6 µL/min/mg, the half-life at 1 μM worked out at 10.1 min and the “Remaining (T = 60 min)” value worked out at 9%. In addition, the “CLlint(s9)” value in data set [3] (scaled per kg) is 0.2415 mL/min/kg. Also, in [4], the “% 0 min (residue percentage)” value is listed as 100%, the “% 10 min (residue percentage)” value came out at 97.1%, the “% 30 min (residue percentage)” value stood at 96.4% and the “% 60 min (residue percentage)” value is 96.1%. The “% 120 min (residue percentage)” value in [4] amounted to 93.7%. In [5], the “% 0 min (residue percentage)” value was 100%, the “% 60 min (residue percentage)” value was 84.26%, the “% 120 min (residue percentage)” value is listed as 58.54% and the “% 360 min (residue percentage)” value is given as 17.28%. Further, the “% 1440 min (residue percentage)” value in data set [5] is recorded as 0.00%.

`CC(C)OC(=O)OCOP(=O)(CO[C@H](C)Cn1cnc2c(N)ncnc21)OCOC(=O)OC(C)C` [TDF, Tenofovir Disoproxil Fumarate] showed a CC50 at 5 days in data set [1] of 21.3 µM. Moreover, in the data set on HIV-1 IIIB (setting [8]), the EC50 came to 0.017 µM. In addition, in data set [6], the “fraction excreted out of the body in original form” value is approximately 80%; the “fraction metabolized and activated into the Tenofovir parent drug under the action of esterase” value is given as “less than 20%”.

For `CC(C)OC(=O)[C@H](C)N[P@](=O)(CO[C@H](C)Cn1cnc2c(N)ncnc21)Oc1ccccc1` [GS-7340], the CC50 at 5 days in data set [1] is 13.3 µM. The EC50 in the data set with HBV (HepG2.2.15) stood at 0.0178 µM. In “in vitro” (comparative test, Table 4), this molecule displayed a CC50 at 6 days of more than 100 µM. In addition, in the data set with HIV-1 IIIB (Human immunodeficiency virus 1, IIIB, MT4, 120 h), the EC50 was determined as 0.0143 µM. In addition, in data set [2], the “% 0 min (residue percentage)” value is given as 100%, the “% 60 min (residue percentage)” value was 30.09%, the “% 120 min (residue percentage)” value is on record as 6.22% and the “% 360 min (residue percentage)” value is 0.06%. Besides, the “% 1440 min (residue percentage)” value in data set [2] is 0.00%. The molecule also gave an IC50 on hERG K-channel of more than 10 µM. In addition, in data set [3], the “CLlint(s9)” value came out at 211.0 µL/min/mg, the half-life at 1 μM was determined as 3.3 min and the “Remaining (T = 60 min)” value is reported as 4%. The “CLlint(s9)” value in [3] (scaled per kg) turned out to be 0.7427 mL/min/kg. Besides, in [4], the “% 0 min (residue percentage)” value is on record as 100%, the “% 10 min (residue percentage)” value turned out to be 93.2%, the “% 30 min (residue percentage)” value came out at 91.0% and the “% 60 min (residue percentage)” value stood at 90.3%. Further, the “% 120 min (residue percentage)” value in data set [4] stood at 90.0%. Moreover, in data set [5], the “% 0 min (residue percentage)” value was 100%, the “% 60 min (residue percentage)” value is given as 95.40%, the “% 120 min (residue percentage)” value is 66.36% and the “% 360 min (residue percentage)” value was 23.41%. Moreover, the “% 1440 min (residue percentage)” value in data set [5] is given as 0.19%.

`Cc1ccccc1CO[P@@](=O)(CO[C@H](C)Cn1cnc2c(N)ncnc21)N[C@@H](C)C(=O)OC(C)C` [Compound 7b] displayed a CC50 at 5 days in [1] of 14.7 µM. Further, the EC50 in the data set on HBV (setting [7]) is 0.275 µM. In the data set “in vitro” (comparative test, Table 4), this molecule registered a CC50 of more than 100 µM. Further, the EC50 in the data set on HIV-1 IIIB (setting [8]) was determined as 0.0837 µM. Moreover, in data set [2], the “% 0 min (residue percentage)” value is recorded as 100%, the “% 60 min (residue percentage)” value is reported as 31.28%, the “% 120 min (residue percentage)” value is recorded as 8.33% and the “% 360 min (residue percentage)” value was 0.09%. Moreover, the “% 1440 min (residue percentage)” value in data set [2] is given as 0.00%. At hERG K-channel, this molecule came in with an IC50 of more than 10 µM. In data set [3], the “CLlint(s9)” value came to 147.4 µL/min/mg, the half-life at 1 μM stood at 4.7 min and the “Remaining (T = 60 min)” value is 5%. For the same molecule, the “CLlint(s9)” value in data set [3] (scaled per kg) turned out to be 0.519 mL/min/kg. Moreover, in data set [4], the “% 0 min (residue percentage)” value turned out to be 100%, the “% 10 min (residue percentage)” value was found to be 93.5%, the “% 30 min (residue percentage)” value is 91.6% and the “% 60 min (residue percentage)” value is 90.5%. Also, the “% 120 min (residue percentage)” value in data set [4] was 90.1%. In [5], the “% 0 min (residue percentage)” value is recorded as 100%, the “% 60 min (residue percentage)” value was 82.76%, the “% 120 min (residue percentage)” value is given as 51.39% and the “% 360 min (residue percentage)” value is 13.16%. In addition, the “% 1440 min (residue percentage)” value in [5] is on record as 0.00%.
